Data: patent US8283353B2, “Fused ring compound and use thereof” (Takeda Pharmaceutical Company Limited, priority 2009, dated 2012)

Assays:
human PPARγ = target: T1, human PPARγ (Homo sapiens, UniProt P37231); experiment: PPARγ agonistic activity: luciferase reporter assay in PPARγ:RXRα:4ERPP/CHO-K1 cells; type: cell-based; conditions: CHO-K1, test compound 10^−6 M; luciferase activity of control compound X (1 μM) = 100%, non-administration group = 0%
T1 construct: expressed in transfected cells
T1 sequence (P37231 1-477 isoform P37231-2): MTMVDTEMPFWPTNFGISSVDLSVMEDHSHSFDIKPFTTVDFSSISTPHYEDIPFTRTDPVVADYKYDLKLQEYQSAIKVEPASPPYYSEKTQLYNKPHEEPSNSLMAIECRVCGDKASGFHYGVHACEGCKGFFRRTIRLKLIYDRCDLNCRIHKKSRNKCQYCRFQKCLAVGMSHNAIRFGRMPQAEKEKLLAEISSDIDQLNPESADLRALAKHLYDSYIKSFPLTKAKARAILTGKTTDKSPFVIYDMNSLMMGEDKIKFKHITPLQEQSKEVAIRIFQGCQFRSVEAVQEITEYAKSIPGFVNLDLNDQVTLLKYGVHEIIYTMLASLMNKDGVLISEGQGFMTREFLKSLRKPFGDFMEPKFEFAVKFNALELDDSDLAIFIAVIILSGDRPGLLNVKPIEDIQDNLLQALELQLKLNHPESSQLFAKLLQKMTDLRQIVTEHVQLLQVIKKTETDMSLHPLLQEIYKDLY
T1 sequence (P19793 1-462 partner): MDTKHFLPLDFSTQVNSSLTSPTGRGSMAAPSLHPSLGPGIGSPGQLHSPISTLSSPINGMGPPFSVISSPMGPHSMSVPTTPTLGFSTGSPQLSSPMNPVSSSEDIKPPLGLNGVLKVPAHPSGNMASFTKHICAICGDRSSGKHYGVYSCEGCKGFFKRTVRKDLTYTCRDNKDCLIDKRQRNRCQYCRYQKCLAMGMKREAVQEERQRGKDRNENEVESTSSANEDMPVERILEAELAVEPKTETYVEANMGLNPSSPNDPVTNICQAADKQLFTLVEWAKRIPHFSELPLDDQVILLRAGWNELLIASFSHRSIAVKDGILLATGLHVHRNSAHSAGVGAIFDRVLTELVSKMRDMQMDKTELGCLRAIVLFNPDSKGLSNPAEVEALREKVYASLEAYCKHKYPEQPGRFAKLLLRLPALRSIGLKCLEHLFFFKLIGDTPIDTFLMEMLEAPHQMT
How it was run: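 Activity is expressed relative to untreated cells (0%) and 1 μM reference compound X (100%), from luciferase luminescence. Reporter line: PPARγ:RXRα:4ERPP/CHO-K1, exposed to compound for one day at 37 °C in F12 medium containing 0.1% fatty-acid-free BSA.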

human AT1 receptor = target: T2, human AT1 receptor (Homo sapiens, UniProt P30556); experiment: AT1 receptor antagonistic activity: [125I]-angiotensin II binding assay on human AT1 receptor-expressing CHO-K1 cellular membrane fraction; conditions: 22.5 pM [125I]-angiotensin II, 1 hr room temperature
T2 construct: expressed in transfected cells; membrane fraction
T2 sequence (P30556 1-359): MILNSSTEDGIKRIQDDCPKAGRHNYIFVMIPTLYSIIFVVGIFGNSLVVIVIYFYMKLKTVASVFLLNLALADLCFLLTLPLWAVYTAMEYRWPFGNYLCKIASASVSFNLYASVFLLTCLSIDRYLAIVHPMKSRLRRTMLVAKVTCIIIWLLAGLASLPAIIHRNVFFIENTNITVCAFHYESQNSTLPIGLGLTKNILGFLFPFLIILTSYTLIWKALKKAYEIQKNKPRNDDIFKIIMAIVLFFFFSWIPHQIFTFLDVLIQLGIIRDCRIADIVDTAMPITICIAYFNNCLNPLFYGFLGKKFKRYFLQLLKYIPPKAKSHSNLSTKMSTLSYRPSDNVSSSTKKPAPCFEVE
How it was run: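 Competition binding used radiolabelled angiotensin II on stably transfected CHO-K1 membrane fractions in Tris pH 7.4/MgCl2 buffer, optionally containing 0.3 mg/mL fatty acid-free BSA, 1 hr at room temperature. Filtration onto GF/C separated bound tracer, and nonspecific binding was measured with candesartan.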

Row | Structure (SMILES) | activation at 1 µM (human PPARγ) [%] | IC50 (human AT1 receptor) [nM]
1 | CCCc1c(Cc2ccc(-c3ccccc3-c3noc(=O)[nH]3)cc2)c(=O)n(C/C(=N\OCC)C(F)(F)F)c2nc(C)nn12 [Example 107, 4-[(2E)-2-(ethoxyimino)-3,3,3-trifluoropropyl]-2-methyl-6-{[2′-(5-oxo-4,5-dihydro-1,2,4-oxadiazol-3-yl)biphenyl-4-yl]methyl}-7-propyl[1,2,4]triazolo[1,5-a]pyrimidin-5(4H)-one] | 16 | 1.9
2 | CCCc1c(Cc2ccc(-c3ccccc3-c3noc(=O)[nH]3)cc2F)c(=O)n(C2CCOCC2)c2nc(C)nn12 [Example 108, 6-{[3-fluoro-2′-(5-oxo-4,5-dihydro-1,2,4-oxadiazol-3-yl)biphenyl-4-yl]methyl}-2-methyl-7-propyl-4-(tetrahydro-2H-pyran-4-yl)[1,2,4]triazolo[1,5-a]pyrimidin-5(4H)-one] | 16 | 1.5
3 | CCCc1c(Cc2ccc(-c3ccccc3-c3noc(=O)[nH]3)cc2)c(=O)n(C2CCOCC2)c2ncnn12 [Example 109, 6-{[2′-(5-oxo-4,5-dihydro-1,2,4-oxadiazol-3-yl)biphenyl-4-yl]methyl}-7-propyl-4-(tetrahydro-2H-pyran-4-yl)[1,2,4]triazolo[1,5-a]pyrimidin-5(4H)-one] | 16 | 2.2
4 | CCCc1c(Cc2ccc(-c3ccccc3-c3noc(=O)[nH]3)cc2F)c(=O)n(C2CCSCC2)c2nc(C)nn12 [Example 113, 6-{[3-fluoro-2′-(5-oxo-4,5-dihydro-1,2,4-oxadiazol-3-yl)biphenyl-4-yl]methyl}-2-methyl-7-propyl-4-(tetrahydro-2H-thiopyran-4-yl)[1,2,4]triazolo[1,5-a]pyrimidin-5(4H)-one] | 20 | 1.5
5 | CCCc1c(Cc2ccc(-c3ccccc3-c3noc(=O)[nH]3)cc2)c(=O)n(C(C)/C(C)=N/OCC)c2nc(C)nn12 (stereo not shown) [Example 114, 4-[(2E)-2-(ethoxyimino)-1-methylpropyl]-2-methyl-6-{[2′-(5-oxo-4,5-dihydro-1,2,4-oxadiazol-3-yl)biphenyl-4-yl]methyl}-7-propyl[1,2,4]triazolo[1,5-a]pyrimidin-5(4H)-one] | 16 | 2
6 | CCCc1c(Cc2ccc(-c3ccccc3-c3noc(=O)[nH]3)cc2F)c(=O)n(C2CCOCC2)c2ncnn12 [Example 117, 6-{[3-fluoro-2′-(5-oxo-4,5-dihydro-1,2,4-oxadiazol-3-yl)biphenyl-4-yl]methyl}-7-propyl-4-(tetrahydro-2H-pyran-4-yl)[1,2,4]triazolo[1,5-a]pyrimidin-5(4H)-one] | 18 | 1.3
7 | CCCc1c(Cc2ccc(-c3ccccc3-c3noc(=O)[nH]3)cc2F)c(=O)n(C2CCCOC2)c2ncnn12 (stereo not shown) [Example 121, 6-{[3-fluoro-2′-(5-oxo-4,5-dihydro-1,2,4-oxadiazol-3-yl)biphenyl-4-yl]methyl}-7-propyl-4-(tetrahydro-2H-pyran-3-yl)[1,2,4]triazolo[1,5-a]pyrimidin-5(4H)-one] | 31 | 1.9
8 | CCCc1c(Cc2ccc(-c3ccccc3-c3noc(=O)[nH]3)cc2)c(=O)n(C2CCCOC2)c2ncnn12 (stereo not shown) [Example 124, 6-{[2′-(5-oxo-4,5-dihydro-1,2,4-oxadiazol-3-yl)biphenyl-4-yl]methyl}-7-propyl-4-(tetrahydro-2H-pyran-3-yl)[1,2,4]triazolo[1,5-a]pyrimidin-5(4H)-one] | 21 | 2.4
9 | CCCCc1c(Cc2ccc(-c3ccccc3-c3noc(=O)[nH]3)cc2)c(=O)n(C2CCOCC2)c2ncnn12 [Example 125, 7-butyl-6-{[2′-(5-oxo-4,5-dihydro-1,2,4-oxadiazol-3-yl)biphenyl-4-yl]methyl}-4-(tetrahydro-2H-pyran-4-yl)[1,2,4]triazolo[1,5-a]pyrimidin-5(4H)-one] | 23 | 1.9
10 | CCCc1c(C(C)c2ccc(-c3ccccc3-c3noc(=O)[nH]3)cc2)c(=O)n([C@H]2CC[C@H](OCC(C)(C)O)CC2)c2ncnn12 (stereo partly drawn) [Example 131, 4-[trans-4-(2-hydroxy-2-methylpropoxy)cyclohexyl]-6-{1-[2′-(5-oxo-4,5-dihydro-1,2,4-oxadiazol-3-yl)biphenyl-4-yl]ethyl}-7-propyl[1,2,4]triazolo[1,5-a]pyrimidin-5(4H)-one] | 15 | 2.9
11 | CCCCc1c(Cc2ccc(-c3ccccc3-c3noc(=O)[nH]3)cc2)c(=O)n(C2CCOC(C)(C)C2)c2ncnn12 (stereo not shown) [Example 134, 7-butyl-4-(2,2-dimethyltetrahydro-2H-pyran-4-yl)-6-{[2′-(5-oxo-4,5-dihydro-1,2,4-oxadiazol-3-yl)biphenyl-4-yl]methyl}[1,2,4]triazolo[1,5-a]pyrimidin-5(4H)-one] | 26 | 1.3
12 | CCCCc1c(Cc2ccc(-c3ccccc3-c3noc(=O)[nH]3)cc2F)c(=O)n(C2CCOCC2)c2nc(C)nn12 [Example 135, 7-butyl-6-{[3-fluoro-2′-(5-oxo-4,5-dihydro-1,2,4-oxadiazol-3-yl)biphenyl-4-yl]methyl}-2-methyl-4-(tetrahydro-2H-pyran-4-yl)[1,2,4]triazolo[1,5-a]pyrimidin-5(4H)-one] | 26 | 0.9
13 | CCCc1c(Cc2ccc(-c3ccccc3-c3noc(=O)[nH]3)cc2F)c(=O)n(C2CCOC(C)(C)C2)c2nc(C)nn12 (stereo not shown) [Example 136, 4-(2,2-dimethyltetrahydro-2H-pyran-4-yl)-6-{[3-fluoro-2′-(5-oxo-4,5-dihydro-1,2,4-oxadiazol-3-yl)biphenyl-4-yl]methyl}-2-methyl-7-propyl[1,2,4]triazolo[1,5-a]pyrimidin-5(4H)-one] | 17 | 1.3
14 | CCCCc1c(Cc2ccc(-c3ccccc3-c3noc(=O)[nH]3)cc2)c(=O)n(C2CCOC(C)(C)C2)c2nc(C)nn12 (stereo not shown) [Example 137, 7-butyl-4-(2,2-dimethyltetrahydro-2H-pyran-4-yl)-2-methyl-6-{[2′-(5-oxo-4,5-dihydro-1,2,4-oxadiazol-3-yl)biphenyl-4-yl]methyl}[1,2,4]triazolo[1,5-a]pyrimidin-5(4H)-one] | 20 | 1.4
15 | CCCCc1c(Cc2ccc(-c3ccccc3-c3noc(=O)[nH]3)cc2)c(=O)n([C@@H]2C[C@@H](C)O[C@@H](C)C2)c2ncnn12 [Example 138, 7-butyl-4-[(2R,4s,6S)-2,6-dimethyltetrahydro-2H-pyran-4-yl]-6-{[2′-(5-oxo-4,5-dihydro-1,2,4-oxadiazol-3-yl)biphenyl-4-yl]methyl}[1,2,4]triazolo[1,5-a]pyrimidin-5(4H)-one] | 8 | 1.3
16 | CCCCc1c(Cc2ccc(-c3ccccc3-c3noc(=O)[nH]3)cc2)c(=O)n([C@H]2C[C@@H](C)O[C@@H](C)C2)c2ncnn12 [Example 139, 7-butyl-4-[(2R,4r,6S)-2,6-dimethyltetrahydro-2H-pyran-4-yl]-6-{[2′-(5-oxo-4,5-dihydro-1,2,4-oxadiazol-3-yl)biphenyl-4-yl]methyl}[1,2,4]triazolo[1,5-a]pyrimidin-5(4H)-one] | 6 | 1.7
17 | CCCc1c(Cc2ccc(-c3ccccc3-c3noc(=O)[nH]3)cc2)c(=O)n(C2CCC(C)OC2)c2nc(C)nn12 (stereo not shown) [Example 144, 2-methyl-4-(6-methyltetrahydro-2H-pyran-3-yl)-6-{[2′-(5-oxo-4,5-dihydro-1,2,4-oxadiazol-3-yl)biphenyl-4-yl]methyl}-7-propyl[1,2,4]triazolo[1,5-a]pyrimidin-5(4H)-one] | 20 | 1.4
